# Experimental data as given in US20240199558A1, “2,4,6-TRISUBSTITUTED 1,3,5-TRIAZINES AS MODULATORS OF CX3CR1” (ASTRAZENECA AB, priority 2022, published 2024).
# Molecular target: CX3CR1 (Homo sapiens (Human), UniProt P49238)
# Assay: hCX3CR1 [3H]-AZD8797 competitive binding assay (filter)
# Conditions: CHO-hCX3CR1 membranes, 2 nM [3H]-AZD8797
# Experimental: hCX3CR1 [^3H]-AZD8797 Competitive Binding Assay (Filter)
# CHO-hCX3CR1 membranes (9 μg per well) together with 2 nM [^3H]-AZD8797 and different concentrations of competitor compound were incubated in 25 mM HEPES (pH 7.4), 10 mM MgCl2, 1 mM CaCl2) and 0.5% BSA in a Corning polystyrene flat-bottom 96-well plate. The plate was incubated for 2 h at room temperature before free radioligand was separated from bound by vacuum filtration on to a Multiscreen HTS+HiFlow FB (Millipore) filter plate, using a Biomek FX (Beckman Coulter). The filter plate was washed in ice-cold 25 mM HEPES (pH 7.4), 5 mM MgCl2, 1 mM CaCl2) and 500 mM NaCl and dried at 50° C. for 1 h. Scintillation cocktail, Optiphase Supermix (PerkinElmer) was added to each well and the radioactivity was measured using a MicroBeta Trilux reader (PerkinElmer). The DMSO concentration was held constant at 1%.
# Chain of CX3CR1 (P49238 whole entry): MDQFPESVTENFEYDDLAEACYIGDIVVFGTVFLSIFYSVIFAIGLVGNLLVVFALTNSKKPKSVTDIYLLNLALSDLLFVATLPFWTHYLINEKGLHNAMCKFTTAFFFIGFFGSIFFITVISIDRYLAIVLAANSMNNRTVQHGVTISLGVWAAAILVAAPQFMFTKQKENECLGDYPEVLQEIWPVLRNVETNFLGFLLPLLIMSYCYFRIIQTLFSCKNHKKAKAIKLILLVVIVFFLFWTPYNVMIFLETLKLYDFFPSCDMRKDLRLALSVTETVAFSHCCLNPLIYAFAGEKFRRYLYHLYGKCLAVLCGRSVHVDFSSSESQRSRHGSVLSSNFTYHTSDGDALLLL
row,Structure (SMILES),IC50 [nM]
1,"COc1cc(C)c([C@@H](C)Cc2nc(N[C@@H](CO)CC(C)C)nc(NS(C)(=O)=O)n2)cn1 (single isomer, unassigned) [Example 14, N-(4-(((R)-1-Hydroxy-4-methylpentan-2-yl)amino)-6-((S*)-2-(6-methoxy-4-methylpyridin-3-yl)propyl)-1,3,5-triazin-2-yl)methanesulfonamide]",> 10000
2,"COc1ccc([C@@H](C)Cc2nc(N[C@@H](CO)CC(C)C)nc(NS(C)(=O)=O)n2)cc1F (single isomer, unassigned) [Example 20, N-(4-((S*)-2-(3-Fluoro-4-methoxyphenyl)propyl)-6-(((R)-1-hydroxy-4-methylpentan-2-yl)amino)-1,3,5-triazin-2-yl)methanesulfonamide]",958
3,"CC(C)C[C@H](CO)Nc1nc(C[C@H](C)c2cc(F)c(F)c(F)c2)nc(NS(C)(=O)=O)n1 (single isomer, unassigned) [Example 21, N-(4-(((R)-1-Hydroxy-4-methylpentan-2-yl)amino)-6-((S*)-2-(3,4,5-trifluorophenyl)propyl)-1,3,5-triazin-2-yl)methanesulfonamide]",6410
4,"CC(C)C[C@H](CO)Nc1nc(C[C@@H](C)c2cc(F)c(F)c(F)c2)nc(NS(C)(=O)=O)n1 (single isomer, unassigned) [Example 22, N-(4-(((R)-1-Hydroxy-4-methylpentan-2-yl)amino)-6-((R*)-2-(3,4,5-trifluorophenyl)propyl)-1,3,5-triazin-2-yl)methanesulfonamide]",257
5,"CC(C)C[C@H](CO)Nc1nc(C[C@H](C)c2cc(F)ccc2F)nc(NS(C)(=O)=O)n1 (single isomer, unassigned) [Example 23, N-(4-((S*)-2-(2,5-Difluorophenyl)propyl)-6-(((R)-1-hydroxy-4-methylpentan-2-yl)amino)-1,3,5-triazin-2-yl)methanesulfonamide]",548
6,"CCOc1ccc([C@@H](C)Cc2nc(N[C@@H](CO)CC(C)C)nc(NS(C)(=O)=O)n2)cn1 (single isomer, unassigned) [Example 28, N-(4-((S*)-2-(6-Ethoxypyridin-3-yl)propyl)-6-(((R)-1-hydroxy-4-methylpentan-2-yl)amino)-1,3,5-triazin-2-yl)methanesulfonamide]",2780
7,"CC(C)C[C@H](CO)Nc1nc(C[C@H](C)c2cc(Cl)ccc2F)nc(NS(C)(=O)=O)n1 (single isomer, unassigned) [Example 29, N-(4-((S*)-2-(5-Chloro-2-fluorophenyl)propyl)-6-(((R)-1-hydroxy-4-methylpentan-2-yl)amino)-1,3,5-triazin-2-yl)methanesulfonamide]",794
8,"CC(C)C[C@H](CO)Nc1nc(C[C@@H](C)c2cc(F)c(Cl)c(F)c2)nc(NS(C)(=O)=O)n1 (single isomer, unassigned) [Example 31, N-(4-((R*)-2-(4-Chloro-3,5-difluorophenyl)propyl)-6-(((R)-1-hydroxy-4-methylpentan-2-yl)amino)-1,3,5-triazin-2-yl)methanesulfonamide]",287
9,"CC(C)C[C@H](CO)Nc1nc(C[C@H](C)c2cc(F)c(Cl)c(F)c2)nc(NS(C)(=O)=O)n1 (single isomer, unassigned) [Example 32, N-(4-((S*)-2-(4-Chloro-3,5-difluorophenyl)propyl)-6-(((R)-1-hydroxy-4-methylpentan-2-yl)amino)-1,3,5-triazin-2-yl)methanesulfonamide]",7560
10,"CC(C)C[C@H](CO)Nc1nc(C[C@H](C)c2ccc(Cl)c(F)c2F)nc(NS(C)(=O)=O)n1 (single isomer, unassigned) [Example 33, N-(4-((S*)-2-(4-Chloro-2,3-difluorophenyl)propyl)-6-(((R)-1-hydroxy-4-methylpentan-2-yl)amino)-1,3,5-triazin-2-yl)methanesulfonamide]",384
11,"CC(C)C[C@H](CO)Nc1nc(C[C@H](C)c2cc(F)c(F)cc2F)nc(NS(C)(=O)=O)n1 (single isomer, unassigned) [Example 35, N-(4-(((R)-1-Hydroxy-4-methylpentan-2-yl)amino)-6-((S*)-2-(2,4,5-trifluorophenyl)propyl)-1,3,5-triazin-2-yl)methanesulfonamide]",2530
12,"CC(C)C[C@H](CO)Nc1nc(C[C@@H](C)c2cc(F)c(F)cc2F)nc(NS(C)(=O)=O)n1 (single isomer, unassigned) [Example 36, N-(4-(((R)-1-Hydroxy-4-methylpentan-2-yl)amino)-6-((R*)-2-(2,4,5-trifluorophenyl)propyl)-1,3,5-triazin-2-yl)methanesulfonamide]",504
13,"CC(C)C[C@H](CO)Nc1nc(C[C@H](C)c2cc(F)c(Cl)cc2F)nc(NS(C)(=O)=O)n1 (single isomer, unassigned) [Example 37, N-(4-((S*)-2-(4-Chloro-2,5-difluorophenyl)propyl)-6-(((R)-1-hydroxy-4-methylpentan-2-yl)amino)-1,3,5-triazin-2-yl)methanesulfonamide]",1930
14,"CC(C)C[C@H](CO)Nc1nc(C[C@@H](C)c2cc(F)c(Cl)cc2F)nc(NS(C)(=O)=O)n1 (single isomer, unassigned) [Example 38, N-(4-((R*)-2-(4-Chloro-2,5-difluorophenyl)propyl)-6-(((R)-1-hydroxy-4-methylpentan-2-yl)amino)-1,3,5-triazin-2-yl)methanesulfonamide]",685
15,"CC(C)C[C@H](CO)Nc1nc(C[C@H](C)c2c(F)cc(F)cc2F)nc(NS(C)(=O)=O)n1 (single isomer, unassigned) [Example 39, N-(4-(((R)-1-Hydroxy-4-methylpentan-2-yl)amino)-6-((S*)-2-(2,4,6-trifluorophenyl)propyl)-1,3,5-triazin-2-yl)methanesulfonamide]",> 10000
16,"CC(C)C[C@H](CO)Nc1nc(C[C@H](C)c2c(F)ccc(F)c2F)nc(NS(C)(=O)=O)n1 (single isomer, unassigned) [Example 41, N-(4-(((R)-1-Hydroxy-4-methylpentan-2-yl)amino)-6-((S*)-2-(2,3,6-trifluorophenyl)propyl)-1,3,5-triazin-2-yl)methanesulfonamide]",> 10000
17,"CC(C)C[C@H](CO)Nc1nc(C[C@H](C)c2c(F)cc(Cl)cc2F)nc(NS(C)(=O)=O)n1 (single isomer, unassigned) [Example 43, N-(4-((S*)-2-(4-Chloro-2,6-difluorophenyl)propyl)-6-(((R)-1-hydroxy-4-methylpentan-2-yl)amino)-1,3,5-triazin-2-yl)methanesulfonamide]",9110

# The next molecules have a lower IC50 than those just listed; values first:
row,IC50 [nM],Structure (SMILES)
1,186,"CC(C)C[C@H](CO)Nc1nc(C[C@H](C)c2ccc(F)c(F)c2F)nc(NS(C)(=O)=O)n1 (relative stereo) [Example 87, N-(4-(((R)-1-Hydroxy-4-methylpentan-2-yl)amino)-6-((S*)-2-(2,3,4-trifluorophenyl)propyl)-1,3,5-triazin-2-yl)methanesulfonamide]"
2,33,"COc1ccc([C@H](C)Cc2nc(N[C@@H](CO)CC(C)C)nc(NS(C)(=O)=O)n2)cc1F (single isomer, unassigned) [Example 19, N-(4-((R*)-2-(3-Fluoro-4-methoxyphenyl)propyl)-6-(((R)-1-hydroxy-4-methylpentan-2-yl)amino)-1,3,5-triazin-2-yl)methanesulfonamide]"
3,78,"CC(C)C[C@H](CO)Nc1nc(C[C@@H](C)c2cc(F)ccc2F)nc(NS(C)(=O)=O)n1 (single isomer, unassigned) [Example 24, N-(4-((R*)-2-(2,5-Difluorophenyl)propyl)-6-(((R)-1-hydroxy-4-methylpentan-2-yl)amino)-1,3,5-triazin-2-yl)methanesulfonamide]"
4,138,"CCOc1ccc([C@H](C)Cc2nc(N[C@@H](CO)CC(C)C)nc(NS(C)(=O)=O)n2)cn1 (single isomer, unassigned) [Example 27, N-(4-((R*)-2-(6-Ethoxypyridin-3-yl)propyl)-6-(((R)-1-hydroxy-4-methylpentan-2-yl)amino)-1,3,5-triazin-2-yl)methanesulfonamide]"
5,148,"CC(C)C[C@H](CO)Nc1nc(C[C@@H](C)c2cc(Cl)ccc2F)nc(NS(C)(=O)=O)n1 (single isomer, unassigned) [Example 30, N-(4-((R*)-2-(5-Chloro-2-fluorophenyl)propyl)-6-(((R)-1-hydroxy-4-methylpentan-2-yl)amino)-1,3,5-triazin-2-yl)methanesulfonamide]"
6,52,"CC(C)C[C@H](CO)Nc1nc(C[C@@H](C)c2ccc(Cl)c(F)c2F)nc(NS(C)(=O)=O)n1 (single isomer, unassigned) [Example 34, N-(4-((R*)-2-(4-Chloro-2,3-difluorophenyl)propyl)-6-(((R)-1-hydroxy-4-methylpentan-2-yl)amino)-1,3,5-triazin-2-yl)methanesulfonamide]"
7,65,"CC(C)C[C@H](CO)Nc1nc(C[C@@H](C)c2c(F)cc(F)cc2F)nc(NS(C)(=O)=O)n1 (single isomer, unassigned) [Example 40, N-(4-(((R)-1-Hydroxy-4-methylpentan-2-yl)amino)-6-((R*)-2-(2,4,6-trifluorophenyl)propyl)-1,3,5-triazin-2-yl)methanesulfonamide]"
8,30,"CC(C)C[C@H](CO)Nc1nc(C[C@@H](C)c2c(F)ccc(F)c2F)nc(NS(C)(=O)=O)n1 (single isomer, unassigned) [Example 42, N-(4-(((R)-1-Hydroxy-4-methylpentan-2-yl)amino)-6-((R*)-2-(2,3,6-trifluorophenyl)propyl)-1,3,5-triazin-2-yl)methanesulfonamide]"
